Source: US20230085307A1, “PYRIDAZINONE COMPOUND AND HERBICIDE” (NISSAN CHEMICAL CORPORATION, priority 2019, published 2023)

Tests used:
lambsquarters [1] = assay: Test Example 5: herbicidal effect by foliage application, plastic box (Table 20, symbol O); type: in vivo, lambsquarters (Chenopodium album); settings: foliage application, 320 g/ha, three weeks after application
Procedure, shortened: (§1)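 Post-emergence foliar test in sterilized diluvial soil. Compound applied as water-diluted emulsion at a predetermined rate to 14-day-old plants; evaluation at three weeks.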

rice flat sedge = assay: Test Example 3: herbicidal effect by foliage application, Wagner pot (Table 18, symbol E); type: in vivo, rice flat sedge (Cyperus iria); settings: 320 g/ha
Procedure, shortened: (§2)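 Plants were sown in alluvial soil held under 0.1–0.5 cm standing water and grown 14 days in a greenhouse at 25–30 °C. An emulsifiable formulation, water-diluted to the set dose, was then sprayed onto the foliage, and effects were scored three weeks later using previously defined criteria.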

barnyard grass [2] = assay: Test Example 5: herbicidal effect by foliage application, plastic box (Table 20, symbol H); type: in vivo, barnyard grass (Echinochloa crus-galli); settings: foliage application, 320 g/ha, three weeks after application
Procedure, shortened: as §1

velvetleaf [3] = assay: Test Example 4: herbicidal effect by soil treatment (Table 19, symbol M); type: in vivo, velvetleaf (Abutilon theophrasti); settings: amount of applied herbicide 320 g/ha
Procedure, shortened: (§3)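 Emulsion of test compound, water-diluted to predetermined amount, sprayed on soil after sowing (seed depth ~1.5 cm, sterilized diluvial soil). Greenhouse, 25–30° C. Effect graded at three weeks post-spray.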

redroot pigweed [4] = assay: Test Example 5: herbicidal effect by foliage application, plastic box (Table 20, symbol N); type: in vivo, redroot pigweed (Amaranthus retroflexus); settings: foliage application, 320 g/ha, three weeks after application
Procedure, shortened: as §1

green foxtail [5] = assay: Test Example 5: herbicidal effect by foliage application, plastic box (Table 20, symbol G); type: in vivo, green foxtail (Setaria viridis); settings: foliage application, 320 g/ha, three weeks after application
Procedure, shortened: as §1

persian speedwell [6] = assay: Test Example 5: herbicidal effect by foliage application, plastic box (Table 20, symbol R); type: in vivo, Persian speedwell (Veronica persica); settings: foliage application, 320 g/ha, three weeks after application
Procedure, shortened: as §1

chickweed [7] = assay: Test Example 4: herbicidal effect by soil treatment (Table 19, symbol P); type: in vivo, common chickweed (Stellaria media); settings: amount of applied herbicide 320 g/ha
Procedure, shortened: as §3

southern crabgrass [8] = assay: Test Example 4: herbicidal effect by soil treatment (Table 19, symbol F); type: in vivo, southern crabgrass (Digitaria ciliaris); settings: amount of applied herbicide 320 g/ha
Procedure, shortened: as §3

chickweed [9] = assay: Test Example 5: herbicidal effect by foliage application, plastic box (Table 20, symbol P); type: in vivo, common chickweed (Stellaria media); settings: foliage application, 320 g/ha, three weeks after application
Procedure, shortened: as §1

green foxtail [10] = assay: Test Example 4: herbicidal effect by soil treatment (Table 19, symbol G); type: in vivo, green foxtail (Setaria viridis); settings: amount of applied herbicide 320 g/ha
Procedure, shortened: as §3

wild oat [11] = assay: Test Example 5: herbicidal effect by foliage application, plastic box (Table 20, symbol I); type: in vivo, wild oat (Avena fatua); settings: foliage application, 320 g/ha, three weeks after application
Procedure, shortened: as §1

windgrass [12] = assay: Test Example 4: herbicidal effect by soil treatment (Table 19, symbol L); type: in vivo, windgrass (Apera spica-venti); settings: amount of applied herbicide 320 g/ha
Procedure, shortened: as §3

persian speedwell [13] = assay: Test Example 4: herbicidal effect by soil treatment (Table 19, symbol R); type: in vivo, Persian speedwell (Veronica persica); settings: amount of applied herbicide 320 g/ha
Procedure, shortened: as §3

barnyard grass [14] = assay: Test Example 3: herbicidal effect by foliage application, Wagner pot (Table 18, symbol H); type: in vivo, barnyard grass (Echinochloa crus-galli); settings: 320 g/ha
Procedure, shortened: as §2

wild oat [15] = assay: Test Example 4: herbicidal effect by soil treatment (Table 19, symbol I); type: in vivo, wild oat (Avena fatua); settings: amount of applied herbicide 320 g/ha
Procedure, shortened: as §3

redroot pigweed [16] = assay: Test Example 4: herbicidal effect by soil treatment (Table 19, symbol N); type: in vivo, redroot pigweed (Amaranthus retroflexus); settings: amount of applied herbicide 320 g/ha
Procedure, shortened: as §3

blackgrass [17] = assay: Test Example 4: herbicidal effect by soil treatment (Table 19, symbol J); type: in vivo, blackgrass (Alopecurus myosuroides); settings: amount of applied herbicide 320 g/ha
Procedure, shortened: as §3

windgrass [18] = assay: Test Example 5: herbicidal effect by foliage application, plastic box (Table 20, symbol L); type: in vivo, windgrass (Apera spica-venti); settings: foliage application, 320 g/ha, three weeks after application
Procedure, shortened: as §1

lambsquarters [19] = assay: Test Example 4: herbicidal effect by soil treatment (Table 19, symbol O); type: in vivo, lambsquarters (Chenopodium album); settings: amount of applied herbicide 320 g/ha
Procedure, shortened: as §3

barnyard grass [20] = assay: Test Example 4: herbicidal effect by soil treatment (Table 19, symbol H); type: in vivo, barnyard grass (Echinochloa crus-galli); settings: amount of applied herbicide 320 g/ha
Procedure, shortened: as §3

false cleavers [21] = assay: Test Example 4: herbicidal effect by soil treatment (Table 19, symbol Q); type: in vivo, false cleavers (Galium spurium); settings: amount of applied herbicide 320 g/ha
Procedure, shortened: as §3

velvetleaf [22] = assay: Test Example 5: herbicidal effect by foliage application, plastic box (Table 20, symbol M); type: in vivo, velvetleaf (Abutilon theophrasti); settings: foliage application, 320 g/ha, three weeks after application
Procedure, shortened: as §1

Italian ryegrass [23] = assay: Test Example 5: herbicidal effect by foliage application, plastic box (Table 20, symbol K); type: in vivo, Italian ryegrass (Lolium multiflorum); settings: foliage application, 320 g/ha, three weeks after application
Procedure, shortened: as §1

Chinese sprangletop = assay: Test Example 3: herbicidal effect by foliage application, Wagner pot (Table 18, symbol D); type: in vivo, chinese sprangletop (Leptochloa chinensis); settings: 320 g/ha
Procedure, shortened: as §2

southern crabgrass [24] = assay: Test Example 5: herbicidal effect by foliage application, plastic box (Table 20, symbol F); type: in vivo, southern crabgrass (Digitaria ciliaris); settings: foliage application, 320 g/ha, three weeks after application
Procedure, shortened: as §1

false cleavers [25] = assay: Test Example 5: herbicidal effect by foliage application, plastic box (Table 20, symbol Q); type: in vivo, false cleavers (Galium spurium); settings: foliage application, 320 g/ha, three weeks after application
Procedure, shortened: as §1

blackgrass [26] = assay: Test Example 5: herbicidal effect by foliage application, plastic box (Table 20, symbol J); type: in vivo, blackgrass (Alopecurus myosuroides); settings: foliage application, 320 g/ha, three weeks after application
Procedure, shortened: as §1

Italian ryegrass [27] = assay: Test Example 4: herbicidal effect by soil treatment (Table 19, symbol K); type: in vivo, Italian ryegrass (Lolium multiflorum); settings: amount of applied herbicide 320 g/ha
Procedure, shortened: as §3

Structure (SMILES)	O: lambsquarters, herbicidal effect grade (lambsquarters [1])	herbicidal effect on rice flat sedge (E) (rice flat sedge)	H: barnyard grass, herbicidal effect grade (barnyard grass [2])	M: velvetleaf, herbicidal effect grade (velvetleaf [3])	N: redroot pigweed, herbicidal effect grade (redroot pigweed [4])	G: green foxtail, herbicidal effect grade (green foxtail [5])	R: persian speedwell, herbicidal effect grade (persian speedwell [6])	P: chickweed, herbicidal effect grade (chickweed [7])	F: southern crabgrass, herbicidal effect grade (southern crabgrass [8])	P: chickweed, herbicidal effect grade (chickweed [9])	G: green foxtail, herbicidal effect grade (green foxtail [10])	I: wild oat, herbicidal effect grade (wild oat [11])	L: windgrass, herbicidal effect grade (windgrass [12])	R: persian speedwell, herbicidal effect grade (persian speedwell [13])	herbicidal effect on barnyard grass (H) (barnyard grass [14])	I: wild oat, herbicidal effect grade (wild oat [15])	N: redroot pigweed, herbicidal effect grade (redroot pigweed [16])	J: blackgrass, herbicidal effect grade (blackgrass [17])	L: windgrass, herbicidal effect grade (windgrass [18])	O: lambsquarters, herbicidal effect grade (lambsquarters [19])	other results
CCCC(=O)Oc1c(C)nn(C)c(=O)c1-c1c(-c2ccc(OC(C)C)cc2)sc2cc(Cl)ccc12 [3-042]	3 (Herbicidal rate of 40% or more and less than 70%)	3 (Herbicidal rate of 40% or more and less than 70%)	0 (Herbicidal rate of 5% or less (almost no effect))	0 (Herbicidal rate of 5% or less (almost no effect))	3 (Herbicidal rate of 40% or more and less than 70%)	0 (Herbicidal rate of 5% or less (almost no effect))	0 (Herbicidal rate of 5% or less (almost no effect))	0 (Herbicidal rate of 5% or less (almost no effect))	0 (Herbicidal rate of 5% or less (almost no effect))	0 (Herbicidal rate of 5% or less (almost no effect))	0 (Herbicidal rate of 5% or less (almost no effect))	0 (Herbicidal rate of 5% or less (almost no effect))	0 (Herbicidal rate of 5% or less (almost no effect))	0 (Herbicidal rate of 5% or less (almost no effect))	4 (Herbicidal rate of 70% or more and less than 90%)	0 (Herbicidal rate of 5% or less (almost no effect))	3 (Herbicidal rate of 40% or more and less than 70%)	0 (Herbicidal rate of 5% or less (almost no effect))	0 (Herbicidal rate of 5% or less (almost no effect))	0 (Herbicidal rate of 5% or less (almost no effect))	H: barnyard grass, herbicidal effect grade (barnyard grass [20]): 0 (Herbicidal rate of 5% or less (almost no effect)); Q: false cleavers, herbicidal effect grade (false cleavers [21]): 0 (Herbicidal rate of 5% or less (almost no effect)); M: velvetleaf, herbicidal effect grade (velvetleaf [22]): 3 (Herbicidal rate of 40% or more and less than 70%); K: Italian ryegrass, herbicidal effect grade (Italian ryegrass [23]): 0 (Herbicidal rate of 5% or less (almost no effect)); herbicidal effect on Chinese sprangletop (D) (Chinese sprangletop): 0 (Herbicidal rate of 5% or less (almost no effect)); F: southern crabgrass, herbicidal effect grade (southern crabgrass [24]): 0 (Herbicidal rate of 5% or less (almost no effect)); Q: false cleavers, herbicidal effect grade (false cleavers [25]): 0 (Herbicidal rate of 5% or less (almost no effect)); J: blackgrass, herbicidal effect grade (blackgrass [26]): 0 (Herbicidal rate of 5% or less (almost no effect)); K: Italian ryegrass, herbicidal effect grade (Italian ryegrass [27]): 0 (Herbicidal rate of 5% or less (almost no effect))
COc1ccc(-c2sc3cc(C)ccc3c2-c2c(O)c(C)nn(C)c2=O)cc1 [3-051]	0 (Herbicidal rate of 5% or less (almost no effect))	3 (Herbicidal rate of 40% or more and less than 70%)	0 (Herbicidal rate of 5% or less (almost no effect))	0 (Herbicidal rate of 5% or less (almost no effect))	0 (Herbicidal rate of 5% or less (almost no effect))	0 (Herbicidal rate of 5% or less (almost no effect))	5 (Herbicidal rate of 90% or more (almost completely withered))	0 (Herbicidal rate of 5% or less (almost no effect))	0 (Herbicidal rate of 5% or less (almost no effect))	4 (Herbicidal rate of 70% or more and less than 90%)	0 (Herbicidal rate of 5% or less (almost no effect))	0 (Herbicidal rate of 5% or less (almost no effect))	0 (Herbicidal rate of 5% or less (almost no effect))	4 (Herbicidal rate of 70% or more and less than 90%)	1 (Herbicidal rate of 5% or more and less than 20%)	0 (Herbicidal rate of 5% or less (almost no effect))	0 (Herbicidal rate of 5% or less (almost no effect))	0 (Herbicidal rate of 5% or less (almost no effect))	0 (Herbicidal rate of 5% or less (almost no effect))	0 (Herbicidal rate of 5% or less (almost no effect))	H: barnyard grass, herbicidal effect grade (barnyard grass [20]): 0 (Herbicidal rate of 5% or less (almost no effect)); Q: false cleavers, herbicidal effect grade (false cleavers [21]): 0 (Herbicidal rate of 5% or less (almost no effect)); M: velvetleaf, herbicidal effect grade (velvetleaf [22]): 0 (Herbicidal rate of 5% or less (almost no effect)); K: Italian ryegrass, herbicidal effect grade (Italian ryegrass [23]): 1 (Herbicidal rate of 5% or more and less than 20%); herbicidal effect on Chinese sprangletop (D) (Chinese sprangletop): 0 (Herbicidal rate of 5% or less (almost no effect)); F: southern crabgrass, herbicidal effect grade (southern crabgrass [24]): 0 (Herbicidal rate of 5% or less (almost no effect)); Q: false cleavers, herbicidal effect grade (false cleavers [25]): 0 (Herbicidal rate of 5% or less (almost no effect)); J: blackgrass, herbicidal effect grade (blackgrass [26]): 0 (Herbicidal rate of 5% or less (almost no effect)); K: Italian ryegrass, herbicidal effect grade (Italian ryegrass [27]): 0 (Herbicidal rate of 5% or less (almost no effect))
